The target of this test is T1, tubulin (α/β heterodimer; β-tubulin) (Sus scrofa, UniProt P02554).
T1 construct: heterodimer of two closely related 55 kDa proteins (α and β tubulins), isolated from Porcine brain tissue; with α-tubulin
The test is described as follows: tubulin polymerization assay with purified porcine brain tubulin (Cytoskeleton BK011P), positive control. Format: biochemical.

This note sets out measurements from PMC10829302 (BMC Microbiology, 2024).

T1 sequence (P02554 whole entry): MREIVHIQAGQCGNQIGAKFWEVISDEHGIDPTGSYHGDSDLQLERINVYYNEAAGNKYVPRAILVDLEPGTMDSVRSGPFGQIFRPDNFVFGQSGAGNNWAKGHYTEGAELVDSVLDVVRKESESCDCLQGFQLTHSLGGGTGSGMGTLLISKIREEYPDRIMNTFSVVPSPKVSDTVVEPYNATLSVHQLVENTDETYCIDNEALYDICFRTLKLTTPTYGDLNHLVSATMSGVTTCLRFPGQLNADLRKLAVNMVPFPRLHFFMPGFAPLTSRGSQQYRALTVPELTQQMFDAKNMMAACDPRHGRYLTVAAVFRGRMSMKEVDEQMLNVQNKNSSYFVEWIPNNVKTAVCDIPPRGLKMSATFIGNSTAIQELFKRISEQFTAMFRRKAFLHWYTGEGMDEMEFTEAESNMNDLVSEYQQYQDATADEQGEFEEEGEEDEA
T1 sequence (P02550 whole entry partner): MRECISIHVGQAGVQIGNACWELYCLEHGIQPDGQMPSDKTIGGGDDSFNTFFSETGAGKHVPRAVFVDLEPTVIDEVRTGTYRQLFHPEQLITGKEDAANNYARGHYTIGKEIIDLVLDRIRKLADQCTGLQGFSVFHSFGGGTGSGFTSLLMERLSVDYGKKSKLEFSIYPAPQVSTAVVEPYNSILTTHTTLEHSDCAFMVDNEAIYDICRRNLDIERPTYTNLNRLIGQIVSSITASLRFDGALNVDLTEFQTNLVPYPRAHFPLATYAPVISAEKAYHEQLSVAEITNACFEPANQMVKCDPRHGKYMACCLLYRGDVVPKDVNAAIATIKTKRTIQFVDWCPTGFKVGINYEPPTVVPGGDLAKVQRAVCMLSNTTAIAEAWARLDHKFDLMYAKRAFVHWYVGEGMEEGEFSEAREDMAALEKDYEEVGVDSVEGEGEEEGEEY

What is called IC50 is the concentration at which inhibition is half-maximal. A low value points to higher potency. As to `CC(=O)O[C@H]1C(=O)[C@@]2(C)[C@H]([C@H](OC(=O)c3ccccc3)[C@]3(O)C[C@H](OC(=O)[C@H](O)[C@@H](NC(=O)c4ccccc4)c4ccccc4)C(C)=C1C3(C)C)[C@]1(OC(C)=O)CO[C@@H]1C[C@@H]2O` [Paclitaxel], the IC50 is 2.34 µM.
